US10538496B2, “Methods using HDAC11 inhibitors” (FORMA Therapeutics, Inc., priority 2016, dated 2020)

How the values were obtained:
HEL 92.1.7 cells = assay: Cell proliferation assay (CCK8); type: cell-based; details: 48h
Protocol: (§1) This example describes inhibition of in vitro cell proliferation with exemplary HDAC11 inhibitors. The effects of selective HDAC11 inhibitors on cell proliferation were measured in cell lines containing the MPN-associated mutations MPL W515L (Ba/F3 MPL W515L) and JAK2 V617F (Ba/F3 JAK2 V617F, HEL 92.1.7, SET-2). HEL 92.1.7 and SET-2 cells were purchased from the ATCC and DSMZ, respectively. Ba/F3 cells overexpressing either MPLW515L or JAK2V617F, which were cytokine independent, were generated by transforming Ba/F3 cells with retroviruses overexpressing either MPL W515L or JAK2V617F. For survival assays, cells were seeded in 96-well plates at the density of 0.1 million/ml with addition of indicated compounds and incubated at 37° C. for 48h. CCK8 solution (Dojindo, Rockville, Md.) was added and absorbance at 450 nm was measured after 3 hours of incubation. Readings were normalized to dimethylsulfoxide (DMSO)-treated wells.

SET-2 cells = assay: Cell proliferation assay (CCK8); type: cell-based; details: FIG. 4 legend
Protocol: as §1

N#CC[C@H](C1CCCC1)n1cc(-c2ncnc3[nH]ccc23)cn1 [ruxolitinib, reference compound]
growth of the HEL 92.1.7 cell line (HEL 92.1.7 cells): inhibited
growth of SET-2 cell line (SET-2 cells): inhibited
